Test results taken from patent US9499530B2 (HANGZHOU MINSHENG INSTITUTES FOR PHARMA RESEARCH, priority 2011, dated 2016).
“Also recorded” adds a separate entry of the source.

Assays:
[1] = test system: NCI-H1975 xenograft; assay: Growth inhibition of NCI-H1975 xenograft in nude mice; format: in vivo; details: for T/C (%) / Tumor volume (mm^3) D 28: 5 consecutive days weekly for four weeks, D 28; for activity against NC1-H1975 (in words): tumor line with gene mutation, resistant to lapatinib
Description: Administration route: intragastric administration. Administration volume: 0.1 ml/10 g. Administration and frequency: administrating for 5 consecutive days and suspending administration for two days weekly for four weeks. Observation time: continuous observation for 28 days after starting administration. The tumor volume was measured twice a week. At the end of the experiment, the animals were sacrificed, weighed and photographed. Statistical method: SPSS 10.0 statistical software package, one-factor analysis of variance.

[2] = test system: human lung cancer A549 xenograft; assay: Growth inhibition of A549 xenograft in nude mice; format: in vivo; details: for TV (mm^3) End / TV (mm^3) Start / T/C (%): A549 xenograft; for TV (mm^3) End / TV (mm^3) Start / Weight (g) End / Weight (g) Start / T/C (%): 200 mg/kg intragastric; for TV (mm^3) End / Weight (g) End / T/C (%): 5 times per week for four weeks; for TV (mm^3) Start / Weight (g) Start: start of dosing; for Weight (g) End / Weight (g) Start: nude mice with A549 xenograft; for T/C (%): relative tumor growth ratio
Description: Objective of the test: Determining the inhibition of some compounds of the present invention to the growth of human lung cancer A549 transplanted into nude mice and the action intensity thereof.
1. Human lung cancer A549 xenograft in nude mice, which was set up by subcutaneously transplantion of the human lung cancer A549 cell lines into right axillary fossa of nude mice. The amount of inoculation is 2×10^6 cells/mouse. Xenograft inoculated into the nude mice was passaged for 3 generations before use.
2. The solvent used in the experiments is: 0.5% of hydroxypropylmethyl cellulose and 0.1% of Tween-80.
3. Vigorous growing tumor tissues were selected to be chopped into approximately 1 mm^3. Under sterile conditions, the tumor tissue blocks were subcutaneously transplanted into right axillary fossa of nude mice. The diameters of the xenograft in nude mice were measured with a vernier caliper. When tumors reached approximately 100-300 mm^3 in size, the animals were randomly divided into groups, wherein there are 12 animals in solvent control group, and 6 animals per group in the other groups. […] The administered dosages were both 200 mg/kg, 5 times per week for consecutive four weeks. The diameters of the tumors were measured twice per week. The negative control group was intragastricly administrated the same amount of solvent. After the experiment, the mice were sacrificed. The tumors were surgically stripped and weighed. The tumor volume (TV) was calculated by the following equation:
[formula] in which a and b represents for the length and the width respectively.
According to the measured results, the relative tumor volume (RTV) was calculated. The calculation equation was: RTV=Vt/V0, wherein V0 is the tumor volume measured during cage administration (i.e. d0), Vt is the tumor volume of each measurement. The evaluation index of anti-tumor activity was the relative tumor growth ratio T/C (%), which was calculated by the following equation: […]
TRTV: treatment group's RTV; CRTV: negative control group's RTV.

[3] = molecular target: EGFR (Epidermal Growth Factor Receptor 1) (Homo sapiens, UniProt P00533); assay: ELISA protein tyrosine kinase inhibition, EGFR; format: biochemical; details: for IC50: ELISA, Poly(Glu, Tyr) 4:1 substrate, ATP 5 μM, test samples at 10-5 mol/l, read-out: EGFR inhibitory activity (IC50 class)
Description: (§1) Determining the Effect of Test Samples at a Concentration of 10-5 Mol/l on the Activity of the Substrate Phosphoryation Catalyzed by EGFR (Epidermal Growth Factor Receptor 1), ErbB-2 (Epidermal Growth Factor Receptor 2), ErbB-4, KDR (Vascular Endothelial Growth Factor Receptor 2) Protein Tyrosine Kinases at Molecular Level
(§2) Enzyme-Linked Immunosorbent Assay (ELISA)
(§3) Main instrument: wavelength-tunable microplate reader (VERSAmax).
(§4) Main reagents: kinase reaction substrate Poly(Glu, Tyr) 4:1 from Sigma; anti-phosphotyrosine monoclonal antibody PY99 from Santa Cruz; horseradish peroxidase-labeled goat anti-mouse IgG from Calbiochem; ATP, DTT, OPD from Amresco, and ELISA plate from Corning.
(§5) Poly(Glu, Tyr)4:1 as an enzyme substrate was diluted by potassium ion-free PBS into 20 μg/ml, and an ELISA plate was coated and subjected to reaction for 12-16 h at 37° C. After the liquid in wells was removed, the plate was washed three time by T-PBS, 5 min for each time. The ELISA plate was then dried in an oven at 37° C. The coated wells were added with the test samples: the test samples were prepared for a stock solution with a concentration of 1×10^−2M in DMSO. The aliquot solution was stored at −20° C., and diluted to the desired concentration with reaction buffer before use. The resulting solution was added into the wells so that the final concentration of 10-5 mol/l in 100 μL reaction system can be obtained. At the same time, a positive control well was set up and a positive control compound Su11248 was added. ATP and test tyrosine kinases were added: ATP solution diluted with reaction buffer was added (the final concentration of ATP is 5 μM). Finally, the test tyrosine kinases solution diluted with reaction buffer was added. The total volume of the reaction system was […]. Meanwhile, a negative control well and a control well without enzyme were set up. The reaction system was placed in a wet box, and shaked for 1 hour at 37° C., shielding from light. After the reaction was complete, the plate was washed by T-PBS three times. Antibody PY99 was added at 100 μL/well; and the plate was shaked for 30 min at 37° C. After the reaction was complete, the plate was washed with T-PBS three times. Horseradish peroxidase-labeled goat anti-mouse IgG was added at 100 μL/well, and the plate was shaked for 30 min at 37° C. The plate was washed with T-PBS three times. OPD developing liquid was added at 100 μL/well, and reacted for 1-10 min at room temperature, shielding from light. 50 μL of 2 M H2SO4 was added to stop the reaction. A492 value was determined using wavelength-tunable microplate reader. The inhibition ratio of the samples can be calculated by the following equation: […]

[4] = molecular target: KDR (Vascular Endothelial Growth Factor Receptor 2) (Homo sapiens, UniProt P35968); assay: ELISA protein tyrosine kinase inhibition, KDR; format: biochemical; details: for IC50: ELISA, Poly(Glu, Tyr) 4:1 substrate, ATP 5 μM, test samples at 10-5 mol/l, read-out: KDR inhibitory activity (IC50 class)
Chain of KDR (Vascular Endothelial Growth Factor Receptor 2) (P35968 20-1356): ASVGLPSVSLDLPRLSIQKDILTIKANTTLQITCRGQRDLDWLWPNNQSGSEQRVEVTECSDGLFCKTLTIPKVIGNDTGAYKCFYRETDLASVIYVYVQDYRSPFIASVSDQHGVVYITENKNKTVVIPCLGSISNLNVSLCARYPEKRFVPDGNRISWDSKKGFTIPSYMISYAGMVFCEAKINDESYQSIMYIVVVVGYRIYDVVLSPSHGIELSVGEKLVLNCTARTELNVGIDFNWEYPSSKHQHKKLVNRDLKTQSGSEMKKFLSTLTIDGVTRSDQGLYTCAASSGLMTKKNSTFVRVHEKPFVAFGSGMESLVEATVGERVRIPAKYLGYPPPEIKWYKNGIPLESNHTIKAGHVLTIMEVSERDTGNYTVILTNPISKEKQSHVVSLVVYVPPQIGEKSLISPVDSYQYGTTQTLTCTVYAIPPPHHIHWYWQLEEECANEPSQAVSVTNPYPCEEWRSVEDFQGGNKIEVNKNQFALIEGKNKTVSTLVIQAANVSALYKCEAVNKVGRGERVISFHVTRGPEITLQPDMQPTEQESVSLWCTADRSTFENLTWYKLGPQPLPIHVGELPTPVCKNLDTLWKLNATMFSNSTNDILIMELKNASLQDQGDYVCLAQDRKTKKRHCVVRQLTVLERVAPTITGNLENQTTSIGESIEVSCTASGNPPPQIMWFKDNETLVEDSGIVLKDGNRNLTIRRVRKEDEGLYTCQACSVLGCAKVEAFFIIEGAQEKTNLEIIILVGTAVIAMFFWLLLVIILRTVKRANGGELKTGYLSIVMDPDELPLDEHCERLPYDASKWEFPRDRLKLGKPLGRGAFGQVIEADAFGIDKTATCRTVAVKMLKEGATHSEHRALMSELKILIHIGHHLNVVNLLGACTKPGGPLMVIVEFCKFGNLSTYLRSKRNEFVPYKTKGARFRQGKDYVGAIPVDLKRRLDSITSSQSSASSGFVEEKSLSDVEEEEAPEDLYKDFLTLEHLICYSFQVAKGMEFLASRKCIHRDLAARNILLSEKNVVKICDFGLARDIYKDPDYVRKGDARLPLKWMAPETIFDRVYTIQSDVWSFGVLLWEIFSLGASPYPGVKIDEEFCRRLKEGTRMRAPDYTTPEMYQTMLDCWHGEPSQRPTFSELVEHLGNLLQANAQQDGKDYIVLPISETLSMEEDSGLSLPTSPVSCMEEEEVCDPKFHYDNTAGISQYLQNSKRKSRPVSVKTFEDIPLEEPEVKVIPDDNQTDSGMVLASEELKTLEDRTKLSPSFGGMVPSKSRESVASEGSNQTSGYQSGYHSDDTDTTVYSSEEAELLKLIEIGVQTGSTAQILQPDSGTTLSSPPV
Description: as §1, §2, §3, §4, §5

[5] = molecular target: ErbB-2 (Epidermal Growth Factor Receptor 2) (Homo sapiens, UniProt P04626); assay: ELISA protein tyrosine kinase inhibition, ErbB-2; format: biochemical; details: Poly(Glu, Tyr) 4:1 substrate, ATP 5 μM, test samples at 10-5 mol/l, read-out: ErbB2 inhibitory activity (IC50 class)
Description: as §1, §2, §3, §4, §5

[6] = molecular target: ErbB-4 (Homo sapiens, UniProt Q15303); assay: ELISA protein tyrosine kinase inhibition, ErbB-4; format: biochemical; details: for IC50: ELISA, Poly(Glu, Tyr) 4:1 substrate, ATP 5 μM, test samples at 10-5 mol/l, read-out: ErbB4 inhibitory activity (IC50 class)
Chain of ErbB-4 (Q15303 26-1308): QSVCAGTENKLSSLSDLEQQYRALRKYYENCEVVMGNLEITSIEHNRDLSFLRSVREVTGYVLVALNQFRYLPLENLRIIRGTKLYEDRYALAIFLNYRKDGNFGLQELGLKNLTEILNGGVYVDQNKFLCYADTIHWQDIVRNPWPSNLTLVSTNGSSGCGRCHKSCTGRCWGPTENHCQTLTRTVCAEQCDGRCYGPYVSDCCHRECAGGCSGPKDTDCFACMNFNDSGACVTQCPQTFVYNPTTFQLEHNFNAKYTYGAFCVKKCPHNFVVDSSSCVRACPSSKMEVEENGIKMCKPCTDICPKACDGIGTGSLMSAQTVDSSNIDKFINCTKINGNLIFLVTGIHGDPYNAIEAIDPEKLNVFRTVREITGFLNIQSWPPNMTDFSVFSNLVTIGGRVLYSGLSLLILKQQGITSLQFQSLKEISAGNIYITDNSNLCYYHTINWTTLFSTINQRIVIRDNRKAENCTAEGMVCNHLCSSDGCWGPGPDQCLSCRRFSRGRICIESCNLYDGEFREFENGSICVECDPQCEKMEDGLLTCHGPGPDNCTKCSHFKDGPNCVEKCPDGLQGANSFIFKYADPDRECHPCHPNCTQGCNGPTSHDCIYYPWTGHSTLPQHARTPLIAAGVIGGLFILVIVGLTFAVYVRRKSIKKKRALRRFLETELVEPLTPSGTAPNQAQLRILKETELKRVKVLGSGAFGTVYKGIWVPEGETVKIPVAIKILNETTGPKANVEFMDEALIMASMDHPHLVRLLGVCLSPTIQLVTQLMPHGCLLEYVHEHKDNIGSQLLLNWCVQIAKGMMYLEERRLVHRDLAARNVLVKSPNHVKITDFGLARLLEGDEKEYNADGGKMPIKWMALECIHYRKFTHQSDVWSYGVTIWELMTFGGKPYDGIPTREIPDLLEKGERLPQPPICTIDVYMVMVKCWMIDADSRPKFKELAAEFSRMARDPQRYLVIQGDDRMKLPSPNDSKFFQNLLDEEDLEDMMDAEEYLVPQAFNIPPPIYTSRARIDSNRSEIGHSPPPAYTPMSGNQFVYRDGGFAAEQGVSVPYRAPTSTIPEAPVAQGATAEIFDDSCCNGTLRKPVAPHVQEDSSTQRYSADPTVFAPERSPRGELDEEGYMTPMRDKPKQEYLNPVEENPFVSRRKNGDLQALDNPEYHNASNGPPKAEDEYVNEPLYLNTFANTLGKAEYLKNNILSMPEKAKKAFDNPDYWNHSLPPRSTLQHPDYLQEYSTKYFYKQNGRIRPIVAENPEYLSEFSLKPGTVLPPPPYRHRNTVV
Description: as §1, §2, §3, §4, §5

[7] = NC1-H1975 xenograft, intragastric

IC50 [3] [µM]	IC50 [4] [µM]	IC50 [5] [µM]	IC50 [6] [µM]	inhibitory activity against EGFR (in words) [3]	inhibition of c-ErbB4/HER4 (in words) [6]	Molecule	T/C (%) [1, 7]	Tumor volume (mm^3) D 28 [1, 7]	activity against NC1-H1975 (in words) [1]	TV (mm^3) End [2]	TV (mm^3) Start [2] [mm^3]	Weight (g) End [2] [g]	Weight (g) Start [2] [g]	T/C (%) [2] [%]	Tumor volume (mm^3) D 0 ([1]; NC1-H1975 xenograft, intragastric, D 0) [mm^3]	inhibitory activity against KDR (in words) [4]	growth inhibition of human lung cancer A549 compared with positive control lapatinib (in words) ([2]; xenograft in nude mice, 200 mg/kg)
–	–	–	–	–	–	COc1cc2ncnc(Nc3ccc(F)c(Cl)c3)c2cc1OCCCN1CCOCC1 [Gefitinib]	87.89%	2164.44 ± 1064.85 mm^3	almost no activity	–	–	–	–	–	–	–	–
–	–	–	–	–	–	CS(=O)(=O)CCNCc1ccc(-c2ccc3ncnc(Nc4ccc(OCc5cccc(F)c5)c(Cl)c4)c3c2)o1 [Lapatinib, lapatinib, reference compound]	104.26%	2420.50 ± 1405.01 mm^3	–	943.2 ± 225.7^▴ mm^3	153.6 ± 64.8	26.3 ± 3.3	24.1 ± 2.9	–	–	–	–
< 10	< 10	< 10	< 10	–	–	OCC(CO)NCc1ccc(-c2ccc3ncnc(Nc4ccc(OCc5cccc(F)c5)c(Cl)c4)c3c2)o1 [MS6·dimethanesulfonate, N-(3-chloro-4-((3-fluorobenzyl)oxy)phenyl)-6-((5-(2-(1,3-dihydroxypropyl)amino)methyl)-2-furyl)-4-quinazolinamine]	–	–	–	844.5 ± 240.3^▴ mm^3	156.9 ± 64.5	25.2 ± 1.4	24.9 ± 1.3	39.3	–	–	–
< 10	< 10	< 10	< 10	–	–	OCCNCc1ccc(-c2ccc3ncnc(Nc4ccc(OCc5cccc(F)c5)c(Cl)c4)c3c2)o1 [MS27·dimethanesulfonate, N-(3-chloro-4-((3-fluorobenzyl)oxy)phenyl)-6-(5-(((2-hydroxyethyl)amino)methyl)-2-furyl)-4-quinazolinamine]	49.8^★ %	1214.25 ± 944.16^★ mm^3	good activity	775.6 ± 215.4^▴ mm^3	155.3 ± 71.2	25.6 ± 2.2	25.0 ± 2.7	36.4	97.06 ± 38.91	–	–
< 10	< 10	< 10	< 10	–	–	OCC(O)CNCc1ccc(-c2ccc3ncnc(Nc4ccc(OCc5cccc(F)c5)c(Cl)c4)c3c2)o1 (centres unmarked) [MS31·dimethanesulfonate, N-(3-chloro-4-((3-fluorobenzyl)oxy)phenyl)-6-(5-((1-(2,3-dihydroxypropyl)amino)methyl)-2-furyl)-4-quinazolinamine]	–	–	–	–	–	–	–	–	–	–	–
< 10	< 10	< 10	< 10	–	–	OCCCNCc1ccc(-c2ccc3ncnc(Nc4ccc(OCc5cccc(F)c5)c(Cl)c4)c3c2)o1 [MS42·di-p-toluenesulfonate, N-(3-chloro-4-((3-fluorobenzyl)oxy)phenyl)-6-(5-(((3-hydroxypropyl)amino)methyl)-2-furyl)-4-quinazolinamine]	–	–	–	–	–	–	–	–	–	–	–
< 10	< 10	< 10	< 10	–	–	O=C(O)CCC(NCc1ccc(-c2ccc3ncnc(Nc4ccc(OCc5cccc(F)c5)c(Cl)c4)c3c2)o1)C(=O)O (centres unmarked) [MS 23, N-(3-chloro-4-((3-fluorobenzyl)oxy)phenyl)-6-(5-(((1,3-dicarboxypropyl)amino)methyl)-2-furyl)-4-quinazolinamine]	–	–	–	804.3 ± 230.3^▴ mm^3	153.5 ± 74.8	25.7 ± 2.0	25.3 ± 1.5	38.2	–	better inhibitory activity; also recorded: higher inhibitory activity	better effective inhibition; also recorded: better growth inhibition effect
< 10	> 10	> 10	< 10	better inhibitory activity	very good inhibition	N-(3-chloro-4-((3-fluorobenzyl)oxy)phenyl)-6-(5-((morpholinyl)methyl)-2-thienyl)-4-quinazolinamine [MS 33]	–	–	–	–	–	–	–	–	–	–	–
